Measurements published in the supplement of paper PMC10307832.

Columns and labels:
Experiment in all cases: relative viability (nuclei count vs DMSO), 5 days (fraction); higher = more cells survive
Bortezomib + Pictilisib = compound: CC(C)C[C@H](NC(=O)[C@H](Cc1ccccc1)NC(=O)c1cnccn1)B(O)O [Bortezomib] + CS(=O)(=O)N1CCN(Cc2cc3nc(-c4cccc5[nH]ncc45)nc(N4CCOCC4)c3s2)CC1 [Pictilisib] (partner 1 µM)
Method in brief: (§1)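 Lung cancer cell lines in 1536-well plates got either a single drug or a fixed anchor-drug dose together with five library-drug doses (not always all listed) in √10 steps, by pin tool, on the day after seeding. Nuclei were counted after 5 days, and relative viability is the treated-to-vehicle ratio of nuclei counts. Values are medians of duplicate plates.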

[1] = compound: CC1=CC(=NN1)NC2=CC(=NC(=N2)/C=C/C3=CC=CC=C3)N4CCN(CC4)C + Cc1nc(Nc2ncc(C(=O)Nc3c(C)cccc3Cl)s2)cc(N2CCN(CCO)CC2)n1 [Dasatinib] (partner 0.075 µM)
Method in brief: as §1

Obatoclax + Crizotinib = compound: COC1=CC(c2cc3ccccc3[nH]2)=N/C1=C\c1[nH]c(C)cc1C [Obatoclax] + C[C@@H](Oc1cc(-c2cnn(C3CCNCC3)c2)cnc1N)c1c(Cl)ccc(F)c1Cl [Crizotinib] (partner 1 µM)
Method in brief: as §1

Obatoclax + Tozasertib = compound: COC1=CC(c2cc3ccccc3[nH]2)=N/C1=C\c1[nH]c(C)cc1C [Obatoclax] + Cc1cc(Nc2cc(N3CCN(C)CC3)nc(Sc3ccc(NC(=O)C4CC4)cc3)n2)n[nH]1 [Tozasertib] (partner 0.1 µM)
Method in brief: as §1

Cell Line	relative viability (Bortezomib + Pictilisib; first compound 0.0002 µM)	relative viability (Bortezomib + Pictilisib; first compound 0.002 µM)	relative viability (Bortezomib + Pictilisib; first compound 0.006325 µM)	relative viability (Bortezomib + Pictilisib; first compound 0.02 µM)	relative viability ([1]; first compound 0.08 µM)	relative viability ([1]; first compound 0.253 µM)	relative viability ([1]; first compound 0.8 µM)	relative viability ([1]; first compound 2.53 µM)	relative viability ([1]; first compound 8 µM)	relative viability (Obatoclax + Crizotinib; first compound 0.01 µM)	relative viability (Obatoclax + Crizotinib; first compound 0.03162 µM)	relative viability (Obatoclax + Crizotinib; first compound 0.3162 µM)	relative viability (Obatoclax + Crizotinib; first compound 1 µM)	relative viability (Obatoclax + Tozasertib; first compound 0.01 µM)	relative viability (Obatoclax + Tozasertib; first compound 0.03162 µM)	relative viability (Obatoclax + Tozasertib; first compound 0.3162 µM)	relative viability (Obatoclax + Tozasertib; first compound 1 µM)	relative viability (Bortezomib + Pictilisib; first compound 0.000632 µM)	relative viability (Obatoclax + Crizotinib; first compound 0.1 µM)	relative viability (Obatoclax + Tozasertib; first compound 0.1 µM)
NCI-H2405	0.462	0.464	0.152	0.148	0.227	0.216	0.206	0.165	0.109	0.821	0.832	0.826	0.867	0.789	0.905	0.833	0.882	–	–	–
NCI-H3122	0.547	0.688	0.62	0.167	0.9	0.633	0.811	0.551	0.176	0.274	0.28	0.272	0.274	0.389	0.361	0.373	0.391	0.654	0.288	0.382
PC-3 [JPC-3]	0.795	0.804	0.281	0.26	0.931	1.04	0.978	0.948	0.802	0.942	0.892	0.984	0.917	0.913	0.85	0.81	0.859	0.762	0.949	0.87
PC-14	0.685	0.632	0.0319	0.0362	0.273	0.211	0.22	0.0234	0.0115	0.838	0.863	0.9	0.54	0.553	0.562	0.535	0.348	0.726	0.811	0.473
RERF-LC-KJ	0.573	0.523	0.171	0.203	0.908	0.944	0.837	0.249	0.166	0.739	0.821	0.794	0.749	0.444	0.536	0.493	0.281	0.528	0.804	0.487
SK-LU-1	0.521	0.503	0.166	0.14	0.174	0.171	0.156	0.108	0.0621	1.03	0.836	0.403	0.339	0.346	0.354	0.184	0.154	0.528	0.761	0.342
SK-MES-1	0.337	0.347	0.148	0.143	0.479	0.322	0.493	0.139	0.0976	0.97	0.953	0.959	0.81	0.859	0.999	0.344	0.285	0.303	0.978	0.787
SW 1573	0.516	0.399	0.0724	0.0556	0.545	0.578	0.517	0.0958	0.0582	0.781	0.749	0.861	0.483	0.222	0.208	0.143	0.129	0.496	0.843	0.145
UMC-11	0.703	0.741	0.393	0.138	0.487	0.426	0.329	0.163	0.125	0.671	0.615	0.682	0.346	0.202	0.197	0.249	0.22	0.751	0.53	0.234
